The values that follow come from US20110077212A1, “THERAPEUTIC USES OF SGLT2 INHIBITORS” (Theracos, Inc., priority 2009, published 2011).

Each structure is given as a SMILES string. Values joined by “and” are separate entries in the source; they are usually repeats but may differ in a detail not shown here. Equal entries are not always repeated. Structures can show the parent of a compound that is named as a salt.

In data set [1] the test system is SD Rats Fed a Pioglitazone (0.03%) Containing Diet. Nature of the data set: Plasma volume (hematocrit) of SD rats fed a pioglitazone-containing diet for 7 days. The class given is in vivo, Sprague-Dawley rats. Particulars: for Plasma expansion versus vehicle treated rats (in words): 7 days pioglitazone diet, compound in drinking water; for Plasma Volume % DAY 1: day 1 (first day of pioglitazone 0.03% diet and compound in drinking water), amiloride 1.5 mg/kg; for Plasma Volume % DAY 1 / Plasma Volume % DELTA / Plasma Volume % DAY 7: TEST COMPOUND 4.5 mg/kg, mean ± SEM; for Plasma Volume % DELTA: day 7 minus day 1, pioglitazone 0.03% diet; for Plasma Volume % DELTA / Plasma Volume % DAY 7: amiloride 1.5 mg/kg in drinking water; for Plasma Volume % DAY 7: day 7 of pioglitazone 0.03% diet. The source says:
(§1) […] On day −5 rats and water bottles were weighed and placed in the cage with ad lib access to standard rodent chow. Body weights were used to assign rats to counter-balanced groups. Daily water consumption was estimated after weighing bottles again on day −1 and used to determine the appropriate drug concentrations to achieve the desired daily doses. On day 1, rats were weighed and then received an ad mixed diet (ad lib) containing 0.03% pioglitazone in place of standard chow. Food weight was recorded in order to track consumption over the course of the experiment. At this time, rats were also given drinking water containing compound at the appropriate concentration. Full bottles were pre-weighed and recorded in order to track consumption over the course of the experiment. On day 1 and day 7, rats were warmed using a heating pad and lightly anesthetized using isoflurane (Butler Animal Health Services; Chicago, Ill.). Using a sterile scalpel blade, a small tail nick was made on the distal one third of the tail. Blood was collected in a heparinized microcapillary tube (FisherBrand; Pittsburg, Pa.), sealed with putty at one end and stored on ice until centrifugation (5000 rpm, 5 min). Plasma volume was determined using a Critocaps microhematocrit capillary tube reader card (Leica: Lot #7426). On day 7, rats, food and water bottles were again weighed and recorded, hematocrits were determined using blood collected by a tail nick. All data are presented as means +/−1 SEM. Statistical analyses were performed using GraphPad Prism statistical software. The mean differences among the treatment groups for all variables were tested for statistical significance using 2-way repeated measures ANOVAs. Additionally, differences were calculated for each animal (day 7−day 1), and resultant means were tested for statistical significance using 1-way ANOVAs.

For data set [2] the test system is unchanged. The experiment in a line: Body weight of SD rats fed a pioglitazone-containing diet for 7 days. The format is in vivo, Sprague-Dawley rats. Particulars: for Body Weight (g) DAY 1: day 1 (first day of pioglitazone 0.03% diet and compound in drinking water), amiloride 1.5 mg/kg; for Body Weight (g) DAY 1 / Body Weight (%) DELTA (percent weight gain) / Body Weight (g) DELTA (weight gain) / Body Weight (g) DAY 7 / Body Weight (%) DAY 7: TEST COMPOUND 4.5 mg/kg; for Body Weight (g) DAY 1 / Body Weight (%) DELTA (percent weight gain) / Body Weight (g) DELTA (weight gain) / Body Weight (g) DAY 7 / Body Weight (%) DAY 1 / Body Weight (%) DAY 7: mean ± SEM; for Body Weight (%) DELTA (percent weight gain): day 7 minus day 1, percent of day 1 value; for Body Weight (%) DELTA (percent weight gain) / Body Weight (g) DELTA (weight gain) / Body Weight (%) DAY 1 / Body Weight (%) DAY 7: pioglitazone 0.03% diet; for Body Weight (%) DELTA (percent weight gain) / Body Weight (g) DELTA (weight gain) / Body Weight (g) DAY 7 / Body Weight (%) DAY 7: amiloride 1.5 mg/kg in drinking water; for Body Weight (g) DELTA (weight gain): day 7 minus day 1; for Body Weight (g) DAY 7: day 7 of pioglitazone 0.03% diet; for Body Weight (%) DAY 1 / Body Weight (%) DAY 7: percent of day 1 value.
Source text: as §1, with “day” for “day 1 and day 7, rats were warmed using a heating pad and lightly anesthetized using isoflurane (Butler Animal Health Services; Chicago, Ill.). Using a sterile scalpel blade, a small tail nick was made on the distal one third of the tail. Blood was collected in a heparinized microcapillary tube (FisherBrand; Pittsburg, Pa.), sealed with putty at one end and stored on ice until centrifugation (5000 rpm, 5 min). Plasma volume was determined using a Critocaps microhematocrit capillary tube reader card (Leica: Lot #7426). On day”

The mark [3] stands for this setting: one week, pioglitazone 20-25 mg/kg/day in diet.

With `N=C(N)NC(=O)c1nc(Cl)c(N)nc1N` [Amiloride, Amiloride HCl Hydrate], in data set [1], the “Plasma expansion versus vehicle treated rats (in words)” value is listed as “significance for the observed trend toward reversal of PPAR-γ induced expansion was not achieved”, the “Plasma Volume % DAY 1” value is 52.7 ± 0.9%, the “Plasma Volume % DELTA” value was 3.9 ± 0.7% and the “Plasma Volume % DAY 7” value came out at 56.6 ± 0.4 %. In data set [2], the “Body Weight (g) DAY 1” value amounted to 370.0 ± 6.0 g, the “Body Weight (%) DELTA (percent weight gain)” value worked out at 10.8 ± 0.7%, the “Body Weight (g) DELTA (weight gain)” value is given as 40.0 ± 2.8 g and the “Body Weight (g) DAY 7” value is 410.0 ± 7.7 g. Also, in data set [2], the “Body Weight (%) DAY 1” value is on record as 100 ± 0% and the “Body Weight (%) DAY 7” value came to 110.8 ± 0.7 %.
For `OC[C@H]1O[C@@H](c2ccc(Cl)c(Cc3ccc(OCCOC4CC4)cc3)c2)[C@H](O)[C@@H](O)[C@@H]1O` [TEST COMPOUND, (2S,3R,4R,5S,6R)-2-(4-chloro-3-(4-(2-cyclopropoxyethoxy)benzyl)phenyl)-6-(hydroxymethyl)tetrahydro-2H-pyran-3,4,5-triol], in data set [1], the “Plasma expansion versus vehicle treated rats (in words)” value is on record as “significantly less plasma expansion than vehicle treated rats”, the “Plasma Volume % DAY 1” value came to 52.9 ± 0.5%, the “Plasma Volume % DELTA” value is reported as 1.8 ± 0.8 % and the “Plasma Volume % DAY 7” value worked out at 54.7 ± 0.6 %. In addition, in data set [2], the “Body Weight (g) DAY 1” value is 371.7 ± 5.0 ^ g; the “Body Weight (%) DELTA (percent weight gain)” value is 4.8% and 4.8 ± 1.3 %; the “Body Weight (g) DELTA (weight gain)” value is 17.4 g and 17.5 ± 4.7 g; the “Body Weight (g) DAY 7” value is 389.2 ± 5.7 ^†† g. For the same compound, in data set [2], the “Body Weight (%) DAY 1” value is on record as 100 ± 0 ^ % and the “Body Weight (%) DAY 7” value was 104.8 ± 1.3 ^†† %.
With `CCc1ccc(CCOc2ccc(CC3SC(=O)NC3=O)cc2)nc1` (stereo not shown) [pioglitazone], the “Plasma expansion induced by pioglitazone (in words)” value in data set [1] (setting [3]) is “significant plasma expansion”. In data set [2] (setting [3]), the “Increase in body weight induced by pioglitazone” value is listed as “approximately 45 g”.
